Assays:
[1] = target: PDE4B3 (Homo sapiens, UniProt Q07343); assay type: biochemical
Description: (§1) Enzyme Preparations: Partially purified human recombinant phosphodiesterases (PDEs) were obtained by cloning cDNA and expressing in S. frugiperda insect cells using a baculovirus expression system. Cells are harvested from culture by centrifuging at 400×g for 5 minutes. Cell pellet is resuspended in 20 ml of RIPA Buffer (150 mM NaCl, 10 mM Tris, 0.1% NP-40, pH8.3), 4 ml/200 ml of culture, plus protease inhibitors (100 μl/10 ml) and incubated on ice for 10-20 minutes then spun at 3500×g for 10 minutes at 4° C. Supernatant is kept and the pellet thrown away.
(§2) Tritium-labelled cyclic AMP is hydrolysed to 5′-AMP o by PDE. The 5′-AMP is then further hydrolysed to adenosine by nucleotidase in snake venom. An anion-exchange resin binds all charged nucleotides and leaves [^3H]adenosine as the only labelled compound to be counted by liquid scintillation.
(§3) 50 μl of diluted PDE enzyme was incubated with 50 μl of [^3H]-cAMP (specific activity 25 Ci/mmol) and 11 μl of 50% DMSO (or compound dilution) for 20 minutes at 30° C. The enzyme was diluted in 20 mM Tris HCl pH7.4 (×2.2 final concentration) and [3H]-cAMP was diluted in 10 mM MgCl2, 40 mM Tris HCl pH 7.4 (×2.2 final concentration). Reactions were carried out in Greiner 96 deep well 1 ml master-block. The plates were centrifuged for 9 seconds before the 20 minutes incubation. […] After incubation 200 μl Dowex resin (1×8, 200-400 mesh) was added and the plate shaken for 20 minutes then centrifuged for 3 minutes at 1000×g. 50 μl of supernatant was removed and added to 200 μl of MicroScint-20 in white plates (Greiner 96well Optiplate) and shaken for 30 minutes before reading on Perkin Elmer TopCount Scintillation Counter. IC50 values were calculated using GraphPad Prism software (version 8).

[2] = target: PDE4C2 (Homo sapiens, UniProt Q08493); assay type: biochemical
Chain of PDE4C2 (Q08493 107-712): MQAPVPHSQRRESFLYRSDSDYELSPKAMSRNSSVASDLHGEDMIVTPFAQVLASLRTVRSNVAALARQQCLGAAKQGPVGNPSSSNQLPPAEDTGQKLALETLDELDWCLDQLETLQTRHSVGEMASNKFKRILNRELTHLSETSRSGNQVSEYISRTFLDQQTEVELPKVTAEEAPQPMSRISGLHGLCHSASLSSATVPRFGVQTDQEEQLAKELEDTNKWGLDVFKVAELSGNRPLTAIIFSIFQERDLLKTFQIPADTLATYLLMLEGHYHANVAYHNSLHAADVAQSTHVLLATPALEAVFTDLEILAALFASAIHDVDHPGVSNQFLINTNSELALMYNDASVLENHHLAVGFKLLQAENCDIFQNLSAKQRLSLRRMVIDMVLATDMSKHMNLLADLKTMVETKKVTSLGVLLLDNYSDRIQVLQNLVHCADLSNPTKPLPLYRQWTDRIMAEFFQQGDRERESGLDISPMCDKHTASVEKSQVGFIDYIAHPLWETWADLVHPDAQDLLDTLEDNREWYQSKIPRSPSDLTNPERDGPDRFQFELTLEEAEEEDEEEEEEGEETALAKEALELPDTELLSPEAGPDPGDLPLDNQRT
Description: as §1, §2, §3

[3] = target: PDE4D1 (Homo sapiens, UniProt Q08499); assay type: biochemical
Chain of PDE4D1 (Q08499 1-584 isoform Q08499-4): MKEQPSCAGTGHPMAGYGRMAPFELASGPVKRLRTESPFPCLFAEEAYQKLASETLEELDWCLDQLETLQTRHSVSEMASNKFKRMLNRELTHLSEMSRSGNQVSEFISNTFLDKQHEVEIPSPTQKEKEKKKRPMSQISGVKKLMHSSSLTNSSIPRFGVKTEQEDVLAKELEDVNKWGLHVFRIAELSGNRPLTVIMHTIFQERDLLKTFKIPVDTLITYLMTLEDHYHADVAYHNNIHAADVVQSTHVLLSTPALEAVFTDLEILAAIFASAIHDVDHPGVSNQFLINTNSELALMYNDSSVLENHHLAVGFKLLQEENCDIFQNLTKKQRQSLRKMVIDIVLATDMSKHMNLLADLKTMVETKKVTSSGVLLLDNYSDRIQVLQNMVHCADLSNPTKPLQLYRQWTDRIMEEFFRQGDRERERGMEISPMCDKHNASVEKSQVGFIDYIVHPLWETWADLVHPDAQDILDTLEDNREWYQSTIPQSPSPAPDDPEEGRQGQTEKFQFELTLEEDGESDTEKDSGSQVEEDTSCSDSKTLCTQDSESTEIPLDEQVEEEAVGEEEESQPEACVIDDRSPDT
Description: as §1, §2, §3

[4] = target: PDE4B1 (Homo sapiens, UniProt Q07343); assay type: biochemical
Chain of PDE4B1 (Q07343 whole entry): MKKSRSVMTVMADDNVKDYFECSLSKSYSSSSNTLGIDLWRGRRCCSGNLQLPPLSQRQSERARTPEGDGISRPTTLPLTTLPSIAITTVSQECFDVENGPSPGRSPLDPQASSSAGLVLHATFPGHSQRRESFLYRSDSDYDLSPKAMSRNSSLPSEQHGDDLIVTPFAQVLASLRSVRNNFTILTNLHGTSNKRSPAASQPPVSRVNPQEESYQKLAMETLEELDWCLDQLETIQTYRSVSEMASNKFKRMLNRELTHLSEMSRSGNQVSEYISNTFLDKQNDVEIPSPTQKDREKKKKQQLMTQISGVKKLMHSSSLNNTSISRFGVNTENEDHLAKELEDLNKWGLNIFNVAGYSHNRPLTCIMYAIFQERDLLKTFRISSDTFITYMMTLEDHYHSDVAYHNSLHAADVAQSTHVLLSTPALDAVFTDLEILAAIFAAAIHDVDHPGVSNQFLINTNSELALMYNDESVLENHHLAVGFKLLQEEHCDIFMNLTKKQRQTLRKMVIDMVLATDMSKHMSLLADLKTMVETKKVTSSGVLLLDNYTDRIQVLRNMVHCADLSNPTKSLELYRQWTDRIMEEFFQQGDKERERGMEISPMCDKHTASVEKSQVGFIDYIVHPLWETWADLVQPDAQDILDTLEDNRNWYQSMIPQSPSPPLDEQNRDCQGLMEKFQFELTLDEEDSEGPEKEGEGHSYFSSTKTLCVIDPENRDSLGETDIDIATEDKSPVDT
Description: as §1, §2, §3

[5] = target: PDE4A10 (Homo sapiens, UniProt P27815); test: biochemical
Chain of PDE4A10 (P27815 1-825 isoform P27815-6): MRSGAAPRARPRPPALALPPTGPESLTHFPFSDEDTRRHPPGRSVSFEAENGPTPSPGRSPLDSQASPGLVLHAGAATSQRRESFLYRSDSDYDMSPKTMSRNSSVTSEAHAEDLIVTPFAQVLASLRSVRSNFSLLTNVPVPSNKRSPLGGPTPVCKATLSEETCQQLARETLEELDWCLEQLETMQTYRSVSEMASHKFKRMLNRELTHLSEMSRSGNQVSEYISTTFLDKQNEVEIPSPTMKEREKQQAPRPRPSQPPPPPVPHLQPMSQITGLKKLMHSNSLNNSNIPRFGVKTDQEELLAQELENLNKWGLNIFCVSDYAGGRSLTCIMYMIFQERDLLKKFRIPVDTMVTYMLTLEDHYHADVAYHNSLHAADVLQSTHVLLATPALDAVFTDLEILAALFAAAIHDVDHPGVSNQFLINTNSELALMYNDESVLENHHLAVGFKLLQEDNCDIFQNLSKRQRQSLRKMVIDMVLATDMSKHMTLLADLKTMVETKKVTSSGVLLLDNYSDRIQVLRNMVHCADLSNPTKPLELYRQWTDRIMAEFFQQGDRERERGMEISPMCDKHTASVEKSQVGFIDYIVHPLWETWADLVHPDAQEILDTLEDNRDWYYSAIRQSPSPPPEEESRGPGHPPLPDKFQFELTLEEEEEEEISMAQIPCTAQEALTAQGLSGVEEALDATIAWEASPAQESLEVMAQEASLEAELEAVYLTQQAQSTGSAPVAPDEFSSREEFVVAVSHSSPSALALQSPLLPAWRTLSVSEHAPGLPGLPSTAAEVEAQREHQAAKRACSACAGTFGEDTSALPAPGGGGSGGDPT

[6] = tested on: TNF-α release from human peripheral blood mononuclear cells; test: TNF-α release, serum-free, hPBMC, LPS; assay type: cell-based; settings: PBMC, 18 hours
Description: TNF-α, Serumfree, hPBMC, LPS
Cultures of human PBMC isolated from buffy coats were stimulated with lipopolysaccharide to activate the monocytes and to release TNF-α. PBMC were isolated from fresh buffy coats and frozen for later use. On the assay day, cells were thawed, washed in serum free medium (RPMI1640 with 25 mM HEPES, 1% pen/strep, […] L glutamine and 0.5% human serum albumin) and living cells were counted. Test compounds were diluted in DMSO and further diluted in serum-free medium and pipetted into wells of 384 well tissue culture plates. LPS was added to the cells which shortly thereafter were added to the wells with titrated test compounds and incubated for 18 hours at 37° C. The next day, the level of TNF-α in the culture supernatant was quantitated by homogenous time-resolved fluorescence (HTRF) where FRET was measured at 665 nm and normalized to the fluorescence of europium cryptate at 620 nm. The effect (inhibition of TNF-α release) of a test compound was calculated using equation 1: […]
Fluorescence intensities, measured at 665 nm and 620 nm, were used to calculate the 665/620 ratio as an estimate of the level of secreted TNF-α. Sx denotes the 665/620 ratio associated with the test compound. So and Sc denote the 665/620 ratios associated with 0.1% DMSO and 1E-05 M compound (II), respectively.
This model describes a sigmoidal curve with an adjustable baseline, a. […]

Chain of PDE4B3 (Q07343 1-721 isoform Q07343-3): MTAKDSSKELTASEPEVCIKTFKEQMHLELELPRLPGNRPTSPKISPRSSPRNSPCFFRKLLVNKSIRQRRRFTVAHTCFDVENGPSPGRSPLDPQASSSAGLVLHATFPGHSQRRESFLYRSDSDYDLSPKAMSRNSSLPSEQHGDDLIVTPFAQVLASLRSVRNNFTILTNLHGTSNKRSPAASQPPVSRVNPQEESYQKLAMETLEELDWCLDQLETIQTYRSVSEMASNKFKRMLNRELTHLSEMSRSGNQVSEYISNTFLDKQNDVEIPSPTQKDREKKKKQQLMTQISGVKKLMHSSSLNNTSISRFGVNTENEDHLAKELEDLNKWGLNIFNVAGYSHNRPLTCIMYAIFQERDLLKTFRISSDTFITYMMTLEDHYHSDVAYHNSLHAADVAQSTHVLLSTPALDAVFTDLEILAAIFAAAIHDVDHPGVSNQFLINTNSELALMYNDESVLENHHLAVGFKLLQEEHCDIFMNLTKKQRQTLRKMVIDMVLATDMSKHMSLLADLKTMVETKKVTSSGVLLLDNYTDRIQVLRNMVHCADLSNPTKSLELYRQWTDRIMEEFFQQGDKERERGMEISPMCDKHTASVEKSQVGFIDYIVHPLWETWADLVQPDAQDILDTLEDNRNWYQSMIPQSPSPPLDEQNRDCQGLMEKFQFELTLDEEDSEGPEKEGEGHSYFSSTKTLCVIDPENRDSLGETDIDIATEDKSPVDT

SMILES: O=C(Cc1c(Cl)c[n+]([O-])cc1Cl)c1ccc(OC(F)F)c2c1OC1(CCS(=O)(=O)CC1)O2 [Compound (I), 2-(3,5-Dichloro-1-oxido-pyridine-4-yl)-1-(7-difluoro-methoxy-2′,3′,5′,6′-tetrahydro-spiro[1,3-benzodioxole-2,4′-(4H)-thiopyran-1′,1′-dioxide]-4-yl)ethanone]
- IC50 [1]: 3 nM
- IC50 [2]: 104 nM
- IC50 [3]: 9 nM
- IC50 [4]: 16 nM
- IC50 [5]: 52 nM
- EC50 [6]: 11.4 nM
- Emax [6]: 102%

Reference: patent publication US20250268876A1, “TREATMENT OF HIDRADENITIS SUPPURATIVA WITH ORISMILAST” (UNION THERAPEUTICS A/S, priority 2021, published 2025)
